PubChem BioAssay (NCI)
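Protocol summary: plate cells (96-well), add compound at 5 concentrations, incubate 48 h, interpolate endpoints linearly. TGI: concentration producing complete growth inhibition.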

Assays:
Assay in all cases: DTP human tumour cell line panel, 48 h
SK-MEL-2 melanoma = tested on: SK-MEL-2 melanoma
HOP-92 NSCLC = tested on: HOP-92 NSCLC
A498 renal = tested on: A498 renal
MCF7 breast = tested on: MCF7 breast
SF-268 CNS = tested on: SF-268 CNS
HCT-15 colon = tested on: HCT-15 colon
MDA-N = tested on: MDA-N
KM12 colon = tested on: KM12 colon
PC-3 prostate = tested on: PC-3 prostate
CCRF-CEM leukemia = tested on: CCRF-CEM leukemia
A549 NSCLC = tested on: A549 NSCLC
NCI-H460 lung = tested on: NCI-H460 lung
DU-145 prostate = tested on: DU-145 prostate
HCT-116 colon = tested on: HCT-116 colon
OVCAR-5 ovarian = tested on: OVCAR-5 ovarian
T-47D breast = tested on: T-47D breast
M14 melanoma = tested on: M14 melanoma
UO-31 renal = tested on: UO-31 renal
CAKI-1 renal = tested on: CAKI-1 renal
SR leukemia = tested on: SR leukemia
ACHN renal = tested on: ACHN renal
SN12C renal = tested on: SN12C renal
OVCAR-3 ovarian = tested on: OVCAR-3 ovarian
COLO 205 colon = tested on: COLO 205 colon
NCI/ADR-RES ovarian = tested on: NCI/ADR-RES ovarian
SW-620 colon = tested on: SW-620 colon
OVCAR-8 ovarian = tested on: OVCAR-8 ovarian
TK-10 renal = tested on: TK-10 renal
RXF 393 renal = tested on: RXF 393 renal
SK-MEL-5 melanoma = tested on: SK-MEL-5 melanoma
NCI-H23 lung = tested on: NCI-H23 lung
BT-549 breast = tested on: BT-549 breast
UACC-257 melanoma = tested on: UACC-257 melanoma
SNB-19 CNS = tested on: SNB-19 CNS
EKVX NSCLC = tested on: EKVX NSCLC
SNB-75 CNS = tested on: SNB-75 CNS
MOLT-4 leukemia = tested on: MOLT-4 leukemia
IGROV1 ovarian = tested on: IGROV1 ovarian
HL-60(TB) leukemia = tested on: HL-60(TB) leukemia
MDA-MB-435 = tested on: MDA-MB-435
SK-OV-3 ovarian = tested on: SK-OV-3 ovarian
HT29 colon = tested on: HT29 colon
SF-539 CNS = tested on: SF-539 CNS
HCC-2998 colon = tested on: HCC-2998 colon
MALME-3M melanoma = tested on: MALME-3M melanoma
OVCAR-4 ovarian = tested on: OVCAR-4 ovarian
SF-295 CNS = tested on: SF-295 CNS
786-0 renal = tested on: 786-0 renal
NCI-H522 lung = tested on: NCI-H522 lung
U251 CNS = tested on: U251 CNS
HS 578T breast = tested on: HS 578T breast
NCI-H226 lung = tested on: NCI-H226 lung
UACC-62 melanoma = tested on: UACC-62 melanoma
HOP-62 NSCLC = tested on: HOP-62 NSCLC
MDA-MB-231 breast = tested on: MDA-MB-231 breast
SK-MEL-28 melanoma = tested on: SK-MEL-28 melanoma
LOX IMVI melanoma = tested on: LOX IMVI melanoma
RPMI-8226 leukemia = tested on: RPMI-8226 leukemia
K-562 leukemia = tested on: K-562 leukemia

Work on O=C(c1ccsc1)c1cc2c(s1)C(=O)c1ccsc1C2=O yielded a TGI (SK-MEL-2 melanoma) of 0.982 µM, a TGI (HOP-92 NSCLC) of 1.25 µM and a TGI (A498 renal) of 2.94 µM. The TGI (MCF7 breast) was 0.383 µM, the TGI (SF-268 CNS) was 0.405 µM and the TGI (HCT-15 colon) was 0.305 µM. For the same molecule, the TGI (MDA-N) was 0.0512 µM, the TGI (KM12 colon) was 0.434 µM and the TGI (PC-3 prostate) was 0.933 µM. For the same molecule, the TGI (CCRF-CEM leukemia) was > 100 µM, the TGI (A549 NSCLC) was 1.25 µM and the TGI (NCI-H460 lung) was 0.367 µM. The TGI (DU-145 prostate) was 0.296 µM, the TGI (HCT-116 colon) was 0.468 µM and the TGI (OVCAR-5 ovarian) was 1.01 µM. It also gave a TGI (T-47D breast) of 0.675 µM, a TGI (M14 melanoma) of 0.247 µM and a TGI (UO-31 renal) of 0.25 µM. The TGI (CAKI-1 renal) was 1.57 µM, the TGI (SR leukemia) was > 100 µM and the TGI (ACHN renal) was 0.241 µM. For the same molecule, the TGI (SN12C renal) was 0.125 µM, the TGI (OVCAR-3 ovarian) was 0.392 µM and the TGI (COLO 205 colon) was 2.97 µM. The TGI (NCI/ADR-RES ovarian) was 0.407 µM, the TGI (SW-620 colon) was 0.341 µM and the TGI (OVCAR-8 ovarian) was 0.424 µM. For the same molecule, the TGI (TK-10 renal) was 1.25 µM, the TGI (RXF 393 renal) was 0.385 µM and the TGI (SK-MEL-5 melanoma) was 0.104 µM. It also gave a TGI (NCI-H23 lung) of 0.308 µM, a TGI (BT-549 breast) of 0.198 µM and a TGI (UACC-257 melanoma) of 0.324 µM. It also gave a TGI (SNB-19 CNS) of 0.354 µM, a TGI (EKVX NSCLC) of 0.373 µM and a TGI (SNB-75 CNS) of 0.311 µM. For the same molecule, the TGI (MOLT-4 leukemia) was > 100 µM, the TGI (IGROV1 ovarian) was 0.403 µM and the TGI (HL-60(TB) leukemia) was > 100 µM. The TGI (MDA-MB-435) was 0.0696 µM, the TGI (SK-OV-3 ovarian) was 3.09 µM and the TGI (HT29 colon) was 4.08 µM. The TGI (SF-539 CNS) was 0.138 µM, the TGI (HCC-2998 colon) was 1.56 µM and the TGI (MALME-3M melanoma) was 0.0845 µM. For the same molecule, the TGI (OVCAR-4 ovarian) was 0.335 µM, the TGI (SF-295 CNS) was 0.324 µM and the TGI (786-0 renal) was 0.356 µM. For the same molecule, the TGI (NCI-H522 lung) was 0.323 µM, the TGI (U251 CNS) was 0.34 µM and the TGI (HS 578T breast) was 0.549 µM. The TGI (NCI-H226 lung) was 1.11 µM, the TGI (UACC-62 melanoma) was 0.385 µM and the TGI (HOP-62 NSCLC) was 0.431 µM. The TGI (MDA-MB-231 breast) was 0.496 µM and the TGI (SK-MEL-28 melanoma) was 0.305 µM.
CCOC(=O)c1c(Nc2ccccc2)sc2cccnc12 was tested, and the TGI (SK-MEL-2 melanoma) was 49.5 µM, the TGI (HOP-92 NSCLC) was > 29.3 µM and the TGI (A498 renal) was 26.2 µM. The TGI (MCF7 breast) was 59.5 µM, the TGI (SF-268 CNS) was 64.1 µM and the TGI (HCT-15 colon) was 58.3 µM. It also gave a TGI (MDA-N) of 58.3 µM, a TGI (KM12 colon) of 37.6 µM and a TGI (PC-3 prostate) of 65 µM. For the same molecule, the TGI (CCRF-CEM leukemia) was 71.5 µM, the TGI (A549 NSCLC) was 81.1 µM and the TGI (NCI-H460 lung) was > 88.8 µM. The TGI (DU-145 prostate) was > 69.7 µM, the TGI (HCT-116 colon) was 46.7 µM and the TGI (OVCAR-5 ovarian) was 79.4 µM. The TGI (T-47D breast) was > 100 µM, the TGI (M14 melanoma) was 26.4 µM and the TGI (UO-31 renal) was 43.4 µM. For the same molecule, the TGI (CAKI-1 renal) was 98.4 µM, the TGI (SR leukemia) was 59.6 µM and the TGI (ACHN renal) was > 88 µM. For the same molecule, the TGI (SN12C renal) was 45 µM, the TGI (OVCAR-3 ovarian) was 48.7 µM and the TGI (LOX IMVI melanoma) was 44.6 µM. The TGI (COLO 205 colon) was > 60.5 µM, the TGI (NCI/ADR-RES ovarian) was 67.8 µM and the TGI (SW-620 colon) was > 100 µM. The TGI (OVCAR-8 ovarian) was 64 µM, the TGI (TK-10 renal) was 86.1 µM and the TGI (RXF 393 renal) was > 86.6 µM. For the same molecule, the TGI (SK-MEL-5 melanoma) was 24.3 µM, the TGI (NCI-H23 lung) was 67.2 µM and the TGI (BT-549 breast) was 58.8 µM. For the same molecule, the TGI (UACC-257 melanoma) was 51.1 µM, the TGI (SNB-19 CNS) was > 86.4 µM and the TGI (EKVX NSCLC) was 59 µM. For the same molecule, the TGI (SNB-75 CNS) was 59.3 µM, the TGI (MOLT-4 leukemia) was 55.9 µM and the TGI (IGROV1 ovarian) was 47.4 µM. For the same molecule, the TGI (RPMI-8226 leukemia) was 58.3 µM, the TGI (HL-60(TB) leukemia) was 51.3 µM and the TGI (MDA-MB-435) was 54.6 µM. For the same molecule, the TGI (SK-OV-3 ovarian) was > 89.9 µM, the TGI (K-562 leukemia) was 82.8 µM and the TGI (HT29 colon) was 49.6 µM. It also gave a TGI (SF-539 CNS) of 23.6 µM, a TGI (HCC-2998 colon) of 77.8 µM and a TGI (MALME-3M melanoma) of 53.4 µM. It also gave a TGI (OVCAR-4 ovarian) of 79.9 µM, a TGI (SF-295 CNS) of 49.9 µM and a TGI (786-0 renal) of 48.3 µM. The TGI (NCI-H522 lung) was > 58.4 µM, the TGI (U251 CNS) was > 57.9 µM and the TGI (HS 578T breast) was > 69.1 µM. For the same molecule, the TGI (NCI-H226 lung) was 57.1 µM, the TGI (UACC-62 melanoma) was 45.3 µM and the TGI (HOP-62 NSCLC) was > 81 µM. The TGI (MDA-MB-231 breast) was > 83.5 µM and the TGI (SK-MEL-28 melanoma) was 63 µM.
